From US20200055871A1, “ACTIVATORS OF THE RETINOIC ACID INDUCIBLE GENE "RIG-I" PATHWAY AND METHODS OF USE THEREOF” (Kineta Immuno-Oncology LLC, priority 2018, published 2020)
Where two headings read alike, the source gives them in different places.

Assays:
[1] = system: murine CT26 colon carcinoma cells; experiment: RIG-I dependent CXCL10 secretion by CT26 cells (ELISA); type: cell-based; conditions: supernatant 24 h after stimulation
Description: (§1) The CT26 murine colon carcinoma cell line (ATCC) was used to evaluate the induction of CXCL10 secretion. CXCL10 is an important chemokine in tumor immune biology that recruits tumor-specific T cells to the tumor. To confirm that compound-mediated CXCL10 production was RIG-I specific, RIG-1 deficient CT2-RIG-I−/−cells were generated by Kineta Inc. using CRISPR technology.
(§2) CT26 cells were seeded at a density of 1×10^4 cells per well on a 96-well tissue culture plate in 100 μL of cell culture and cells were incubated at 37° C. and 5% CO2 for 24 hr. Next, CT26 cells were treated with compounds at the indicated concentrations. CXCL10 was quantified by ELISA from supernatants taken 24 h after compound stimulation by use of the CXCL10 Duo Set ELISA kit (Cat #DY466, R&D, Minneapolis, Minn., USA) according to the manufacturer's instructions.
(§3) CXCL10 secretion by CT26 cells in response to compounds (in an amount of 5 to 20 μM) of the present disclosure is shown in Table 8. The compound-induced CXCL10 production was RIG-I dependent, since none of the compounds mediated CXCL10 secretion in RIG-I deficient CT26 RIG-I−/−cells (about 0 pg/mL of CXCL10, or below the level of quantitation). The compounds (10 μM, *20 μM, **5 μM) are indicated in the table as follows: “≠” indicates less than 100 pg/mL; “+” indicates 100-199 pg/mL; “++” indicates 200-399 pg/mL; “+++” indicates 400-799 pg/mL; “++++” indicates 800 to 1599 pg/mL; “+++++” indicates greater than or equal to 1600 pg/ml.

[2] = system: RIG-I deficient CT26 RIG-I−/− cells; experiment: CXCL10 secretion by RIG-I deficient CT26 RIG-I−/− cells (ELISA); type: cell-based, murine; conditions: compound 5 to 20 μM, 24 h
Description: as §1, §2, §3

[3] = system: IRF3 signaling pathway in THP1-Lucia™ ISG cells; experiment: THP1-Lucia ISG reporter assay: induction of IRF3-dependent gene expression (secreted luciferase); type: cell-based, human; conditions: Homo sapiens, THP1-Lucia ISG, read-out: fold increase of IRF3-dependent luciferase activity over background, THP1 ISG; for fold induction at 20 µM: 20 μM compound (*)
Description: The compounds were evaluated in the THP1-Lucia™ ISG (interferon stimulated genes) reporter assay to determine if the compounds activate the IRF3 signaling pathway. The THP1-Lucia™ cells (InvivoGen) express the secreted luciferase (Lucia) reporter gene under the control of an IRF-inducible promoter. The reporter cell line was developed from human monocytic leukemia THP-1 cells.
The promoter was comprised of five IFN-stimulated response elements (ISRE) fused to an ISG54 minimal promoter which is unresponsive to NF-kB or AP-1 pathways. […] The IRF3-deficient THP1-Lucia™ ISG IRF3−/−reporter cell line was generated by CRISPR technology from the parent THP1-Lucia™ ISG reporter cell line.
THP1-Lucia™ ISG cells and IRF3-deficient THP1-Lucia™ ISG IRF3−/−cells were differentiated with PMA (100 ng/ml) and stimulated with compounds at the indicated concentrations (5 to 20 μM), positive control, or not treated (background). Luciferase secretion was quantified using the QUANTI-Luc luciferase assay system (InvivoGen) 18 h after stimulation. Data are shown as fold increase luciferase activity over background in Table 7 and represent the IRF3-dependent ISG54 promoter activity by the THP1-Lucia™ ISG cells in response to compounds. […] The fold increase of compounds (10 μM, *20 μM, **5 μM) induced IRF3 dependent luciferase activity is indicated as follows: “≠” indicates less than 2.4 fold increase; “+” indicates a 2.4-4.9 fold increase; “++” indicates a 5-9.9 fold increase; “+++” indicates a 10-19 fold increase; “++++” indicates a 20-39 fold increase; “+++++” indicates greater than or equal to 40 fold increase.

[4] = 10 μM compound, PMA-differentiated cells, 18 h after stimulation
[5] = PMA-differentiated cells, 18 h after stimulation

SMILES | CXCL10 secretion, CT26 ([1]; 20 μM compound (*)) | CXCL10 secretion, CT26 RIG-I−/− [2] | fold induction at 10 µM [3, 4] | CXCL10 secretion, CT26 ([1]; 10 μM compound) | fold induction at 20 µM [3, 5] | fold induction at 10 µM ([3]; 18 h)
CCc1nc2c(ccc3nc(NC(=O)c4ccc5ccccc5c4)sc32)s1 [Example 18, N-{11-ethyl-3,10-dithia-5,12-diazatricyclo[7.3.0.0^2,^6]dodeca-1,4,6,8,11-pentaen-4-yl}naphthalene-2-carboxamide] | +* (100-199 pg/mL) | − | 20 to 39 |  |  | 
O=C(Nc1nc2ccc3scnc3c2s1)c1cc2ccccc2cc1OCCC1CCOCC1 [Example 27, N-{3,10-dithia-5,12-diazatricyclo[7.3.0.0^2,^6]dodeca-1,4,6,8,11-pentaen-4-yl}-3-[2-(oxan-4-yl)ethoxy]naphthalene-2-carboxamide] |  | − |  | ++ (200-399 pg/mL) | 5 to 9.9 | 
COc1cc2ccccc2cc1C(=O)Nc1nc2ccc3scnc3c2s1 [Example 16, N-{3,10-dithia-5,12-diazatricyclo[7.3.0.0^2,^6]dodeca-1,4,6,8,11-pentaen-4-yl}-3-methoxynaphthalene-2-carboxamide] |  | − | 10 to 19 | ++ (200-399 pg/mL) |  | 
O=C(Nc1nc2ccc3scnc3c2s1)c1ccc2occc2c1 [Example 15, N-{3,10-dithia-5,12-diazatricyclo[7.3.0.0^2,^6]dodeca-1,4,6,8,11-pentaen-4-yl}-1-benzofuran-5-carboxamide] |  | − |  | ++ (200-399 pg/mL) | 2.4 to 4.9 | 
O=C(Nc1nc2ccc3scnc3c2s1)c1cc2c(cc1OCCCCN1CCOCC1)OCO2 [Example 41, N-{3,10-dithia-5,12-diazatricyclo[7.3.0.0^2,^6]dodeca-1,4,6,8,11-pentaen-4-yl}-6-[4-(morpholin-4-yl)butoxy]-2H-1,3-benzodioxole-5-carboxamide] |  | − | 2.4 to 4.9 | + (100-199 pg/mL) |  | 
COc1nc2c(ccc3nc(NC(=O)c4cc5ccccc5cc4OCCN4CCOCC4)sc32)s1 [Example 29, N-{11-methoxy-3,10-dithia-5,12-diazatricyclo[7.3.0.0^2,^6]dodeca-1,4,6,8,11-pentaen-4-yl}-3-[2-(morpholin-4-yl)ethoxy]naphthalene-2-carboxamide] |  | − | 10 to 19 | + (100-199 pg/mL) |  | 
Cc1nc2c(ccc3nc(NC(=O)c4ccc(N(C)C)cc4)sc32)s1 [Example 6, 4-(dimethylamino)-N-{11-methyl-3,10-dithia-5,12-diazatricyclo[7.3.0.0^2,^6]dodeca-1,4,6,8,11-pentaen-4-yl}benzamide] |  | − | 10 to 19 | ++ (200-399 pg/mL) |  | 
O=C(Nc1nc2ccc3scnc3c2s1)c1ccc2sccc2c1 [Example 14, N-{3,10-dithia-5,12-diazatricyclo[7.3.0.0^2,^6]dodeca-1,4,6,8,11-pentaen-4-yl}-1-benzothiophene-5-carboxamide] | ++* (200-399 pg/mL) | − | 10 to 19 |  |  | 
CCN(CCO)CCOc1cc2ccccc2cc1C(=O)Nc1nc2ccc3scnc3c2s1 [Example 45, N-{3,10-Dithia-5,12-diazatricyclo[7.3.0.0^2,6]dodeca-1,4,6,8,11-pentaen-4-yl}-3-{2-[ethyl(2-hydroxyethyl)amino]ethoxy}naphthalene-2-carboxamide carboxamide] |  | − | 10 to 19 | +++ (400-799 pg/mL) |  | 
O=C(Nc1nc2ccc3scnc3c2s1)c1cc2ccccc2s1 [Example 11, N-{3,10-dithia-5,12-diazatricyclo[7.3.0.0^2,^6]dodeca-1,4,6,8,11-pentaen-4-yl}-1-benzothiophene-2-carboxamide] |  | − | 2.4 to 4.9 | ++ (200-399 pg/mL) |  | 
Cn1c(C(=O)Nc2nc3ccc4scnc4c3s2)cc2ccccc21 [Example 17, N-{3,10-dithia-5,12-diazatricyclo[7.3.0.0^2,^6]dodeca-1,4,6,8,11-pentaen-4-yl}-1-methyl-1H-indole-2-carboxamide] |  | − | 10 to 19 | ++ (200-399 pg/mL) |  | 
CCN(CC)S(=O)(=O)c1ccc(C(=O)Nc2nc3ccc4sc(C)nc4c3s2)cc1 [Example 3, 4-(diethylsulfamoyl)-N-{11-methyl-3,10-dithia-5,12-diazatricyclo[7.3.0.0^2,^6]dodeca-1,4,6,8,11-pentaen-4-yl}benzamide] | ++* (200-399 pg/mL) | − |  |  | 5 to 9.9 | 
O=C(Nc1nc2ccc3scnc3c2s1)c1ccc2c(c1)OCO2 [Example 4, N-{3,10-dithia-5,12-diazatricyclo[7.3.0.0^2,^6]dodeca-1,4,6,8,11-pentaen-4-yl}-2H-1,3-benzodioxole-5-carboxamide] |  | − |  | +++ (400-799 pg/mL) |  | 10 to 19
COc1nc2c(ccc3nc(NC(=O)c4cc5ccccc5cc4OCCCN4CCOCC4)sc32)s1 [Example 31, N-{11-methoxy-3,10-dithia-5,12-diazatricyclo[7.3.0.0^2,^6]dodeca-1,4,6,8,11-pentaen-4-yl}-3-[3-(morpholin-4-yl)propoxy]naphthalene-2-carboxamide] |  | − | 5 to 9.9 | ++ (200-399 pg/mL) |  | 
Cc1nc2c(ccc3nc(NC(=O)c4ccc5ccccc5c4)sc32)s1 [Example 23, N-{11-methyl-3,10-dithia-5,12-diazatricyclo[7.3.0.0^2,^6]dodeca-1,4,6,8,11-pentaen-4-yl}naphthalene-2-carboxamide] | +++++* (greater than or equal to 1600 pg/ml) | − | 5 to 9.9 |  |  | 
O=C(Nc1nc2ccc3scnc3c2s1)c1cccc(C(F)(F)F)c1 [Example 8, N-{3,10-dithia-5,12-diazatricyclo[7.3.0.0^2,^6]dodeca-1,4,6,8,11-pentaen-4-yl}-3-(trifluoromethyl)benzamide] | +* (100-199 pg/mL) | − |  |  | 10 to 19 | 
Cn1c(C(=O)Nc2cc3ccc4scnc4c3s2)cc2ccccc21 [Example 71, N-{5,12-dithia-3-azatricyclo[7.3.0.0^2,^6]dodeca-1,3,6,8,10-pentaen-11-yl}-1-methyl-1H-indole-2-carboxamide] |  |  |  | + (100-199 pg/mL) |  | 
O=C(Nc1nc2ccc3scnc3c2s1)c1ccc2cc(OCCCCN3CCOCC3)ccc2c1 [Example 39, N-{3,10-dithia-5,12-diazatricyclo[7.3.0.0^2,^6]dodeca-1,4,6,8,11-pentaen-4-yl}-6-[4-(morpholin-4-yl)butoxy]naphthalene-2-carboxamide] |  | − | 5 to 9.9 | ++ (200-399 pg/mL) |  | 
O=C(Nc1nc2ccc3scnc3c2s1)c1ccc2nsnc2c1 [Example 12, N-{3,10-dithia-5,12-diazatricyclo[7.3.0.0^2,^6]dodeca-1,4,6,8,11-pentaen-4-yl}-2,1,3-benzothiadiazole-5-carboxamide] |  | − | 5 to 9.9 | ++++ (800 to 1599 pg/mL) |  | 
